The supplement of paper PMC12613149

What was measured:
[1] = reversed-phase LC retention time (C18, 15 min MeOH gradient); higher = more hydrophobic / later elution
[2] = collision cross section (TIMS, N2 drift gas) of the primary ion; higher = larger gas-phase ion size
[3] = ionization mode: ESI+, ion species: [M+H]+
[4] = ionization mode: ESI-, ion species: [M-H]-
[5] = ionization mode: ESI+, ion species: [M]+

Row | reversed-phase LC retention time [1, 3] | collision cross section [2, 3] | reversed-phase LC retention time [1, 4] | collision cross section [2, 4] | reversed-phase LC retention time [1, 5] | collision cross section [2, 5] | Structure (SMILES)
1 | 1.84 min | 141.08 Å² |  |  |  |  | CC1(C)CC(N)CC(C)(CN)C1 (centres undefined) [Isophorone diamine]
2 | 16.2 min | 185.35 Å² | 16.6 min | 191.1 Å² |  |  | CC(C)C1C2CCC1c1c(NC(=O)c3cn(C)nc3C(F)F)cccc12 (centres undefined) [Isopyrazam]
3 |  |  | 19.5 min | 292.22 Å² |  |  | CC[C@H](C)[C@H]1O[C@]2(CC[C@@H]1C)C[C@@H]1C[C@@H](C/C=C(\C)[C@@H](O[C@H]3C[C@H](OC)[C@@H](O[C@H]4C[C@H](OC)[C@@H](O)[C@H](C)O4)[C@H](C)O3)[C@@H](C)/C=C/C=C3\CO[C@@H]4[C@H](O)C(C)=C[C@@H](C(=O)O1)[C@]34O)O2 [Ivermectin B1a]
4 | 13.2 min | 216.99 Å² |  |  |  |  | CC(=O)N1CCN(c2ccc(OC[C@H]3CO[C@](Cn4ccnc4)(c4ccc(Cl)cc4Cl)O3)cc2)CC1 [Ketoconazole]
5 | 13.5 min | 158.88 Å² |  |  |  |  | CC(C(=O)O)c1cccc(C(=O)c2ccccc2)c1 (centres undefined) [Ketoprofen]
6 | 14 min | 217.22 Å² | 13.4 min | 208.7 Å² |  |  | N[C@@H](Cc1cc(I)c(Oc2cc(I)c(O)c(I)c2)c(I)c1)C(=O)O [L-Thyroxine]
7 | 10.5 min | 176.34 Å² |  |  |  |  | CC(CCc1ccccc1)NCC(O)c1ccc(O)c(C(N)=O)c1 (centres undefined) [Labetalol]
8 | 9.33 min | 153.91 Å² |  |  |  |  | Nc1nnc(-c2cccc(Cl)c2Cl)c(N)n1 [Lamotrigine]
9 |  |  |  |  | 15.9 min | 200.11 Å² | CCCCCCCCCCCC(=O)NCCC[N+](C)(C)CC(=O)O [Lauramidopropylbetaine]
10 | 16.6 min | 178.97 Å² |  |  |  |  | CCCCCCCCCCCC(=O)NCC(C)O (centres undefined) [Lauric isopropanolamide]
11 | 16.4 min | 185.96 Å² |  |  |  |  | CCCCCCCCCCCC(=O)N(CCO)CCO [Lauryl diethanolamide]
12 | 8.29 min | 156.14 Å² |  |  |  |  | CCN(CC)CC(=O)Nc1c(C)cccc1C [Lidocaine]
13 | 7.84 min | 202.11 Å² | 13.2 min | 197.99 Å² |  |  | CCC[C@@H]1C[C@@H](C(=O)N[C@@H]([C@H]2O[C@H](SC)[C@H](O)[C@@H](O)[C@H]2O)[C@@H](C)O)N(C)C1 [Lincomycin]
14 | 10.3 min | 162.42 Å² |  |  |  |  | C[C@@H](O)CCCCn1c(=O)c2c(ncn2C)n(C)c1=O [Lisofylline]
15 | 13.6 min | 221.69 Å² |  |  |  |  | CN(C)C(=O)C(CCN1CCC(O)(c2ccc(Cl)cc2)CC1)(c1ccccc1)c1ccccc1 [Loperamide]
16 | 13.3 min | 201.04 Å² | 13 min | 204 Å² |  |  | CCCCc1nc(Cl)c(CO)n1Cc1ccc(-c2ccccc2-c2nn[nH]n2)cc1 [Losartan]
17 | 11.4 min | 191.29 Å² | 11.6 min | 176.96 Å² |  |  | COc1cc(C[C@H]2COC(=O)[C@@H]2Cc2ccc(O)c(OC)c2)ccc1O [Matairesinol]
18 | 12.4 min | 175.29 Å² | 13 min | 173.87 Å² |  |  | COC(=O)Nc1nc2ccc(C(=O)c3ccccc3)cc2[nH]1 [Mebendazole]
19 | 11.9 min | 202.99 Å² |  |  |  |  | CCN(CCCCOC(=O)c1ccc(OC)c(OC)c1)C(C)Cc1ccc(OC)cc1 (centres undefined) [Mebeverine]
20 | 15.1 min | 187.34 Å² | 15.6 min | 188.11 Å² |  |  | CC(=O)[C@@]1(O)CC[C@H]2[C@@H]3C[C@H](C)C4=CC(=O)CC[C@]4(C)[C@H]3CC[C@@]21C [Medroxyprogesterone]
21 | 15.4 min | 199.59 Å² |  |  |  |  | CC(=O)O[C@]1(C(C)=O)CC[C@H]2[C@@H]3C[C@H](C)C4=CC(=O)CC[C@]4(C)[C@H]3CC[C@@]21C [Medroxyprogesteroneacetate]
22 | 16.3 min | 154.45 Å² | 13.6 min | 159.71 Å² |  |  | Cc1cccc(Nc2ccccc2C(=O)O)c1C [Mefenamic acid]

Row | reversed-phase LC retention time [1, 3] | collision cross section [2, 3] | reversed-phase LC retention time [1, 4] | collision cross section [2, 4] | reversed-phase LC retention time [1, 5] | collision cross section [2, 5] | Structure (SMILES)
23 | 15.2 min | 198.3 Å² |  |  |  |  | CC(=O)O[C@]1(C(C)=O)CC[C@H]2[C@@H]3C=C(C)C4=CC(=O)CC[C@]4(C)[C@H]3CC[C@@]21C [Megestrol-17-acetate]
24 | 9.66 min | 153.65 Å² | 9.81 min | 154.96 Å² |  |  | COc1ccc2[nH]cc(CCNC(C)=O)c2c1 [Melatonin]
25 | 9.83 min | 163.5 Å² |  |  |  |  | CC1CCN(CCCC(=O)c2ccc(F)cc2)CC1 [Melperon]
26 | 11.7 min | 144.78 Å² |  |  |  |  | CC12CC3CC(C)(C1)CC(N)(C3)C2 [Memantine]
27 | 12.7 min | 201.99 Å² | 9.27 min | 206.67 Å² |  |  | COC(=O)c1ccc(CNS(C)(=O)=O)cc1S(=O)(=O)NC(=O)Nc1nc(OC)cc(OC)n1 [Mesosulfuron-methyl]
28 | 16.8 min | 213.54 Å² | 17.3 min | 221.65 Å² |  |  | N#Cc1ccc(C/C(=N\NC(=O)Nc2ccc(OC(F)(F)F)cc2)c2cccc(C(F)(F)F)c2)cc1 [Metaflumizone]
29 | 8.87 min | 139.91 Å² | 6.92 min | 137.07 Å² |  |  | Cc1nc(=O)c(-c2ccccc2)n[nH]1 [Metamitron-desamino]
30 | 8.13 min | 160.33 Å² |  |  |  |  | Cc1cccc(C(=O)O)c1N(Cn1cccn1)C(=O)C(=O)O [Metazachlor BH479-12]
31 | 9.7 min | 175.08 Å² | 8.94 min | 178.82 Å² |  |  | Cc1cccc(C)c1N(Cn1cccn1)C(=O)CS(=O)CC(=O)O (centres undefined) [Metazachlor BH 479-9]
32 | 10.3 min | 163.01 Å² |  |  |  |  | Cc1cccc(C)c1N(Cn1cccn1)C(=O)CS(C)=O (centres undefined) [Metazachlor BH 479-11]
33 | 9.52 min | 168.61 Å² | 9.35 min | 168.78 Å² |  |  | Cc1cccc(C)c1N(Cn1cccn1)C(=O)CS(=O)(=O)O [Metazachlor ESA]
34 |  |  | 8.92 min | 162.14 Å² |  |  | Cc1cccc(C)c1N(Cn1cccn1)C(=O)C(=O)O [Metazachlor OA]
35 | 11.1 min | 156.95 Å² |  |  |  |  | Cc1cccc(C)c1N(Cn1cccn1)C(=O)CO [Metazachlor-2-hydroxy]
36 | 8.4 min | 138.02 Å² |  |  |  |  | Cc1cc(O)cc(C)c1S(C)=O (centres undefined) [Methiocarb-sulfoxide phenol]
37 | 7.82 min | 197.21 Å² |  |  |  |  | CN(Cc1cnc2nc(N)nc(N)c2n1)c1ccc(C(=O)N[C@@H](CCC(=O)O)C(=O)O)cc1 [Methotrexate]
38 |  |  | 17.3 min | 179.88 Å² |  |  | COC(=O)CCc1cc(C(C)(C)C)c(O)c(C(C)(C)C)c1 [Methyl 3-(3,5-di-tert-butyl-4-hydroxyphenyl)propionate]
39 | 5.06 min | 123.51 Å² |  |  |  |  | Cn1ncc(N)c(Cl)c1=O [Methyldesphenylchloridazon]
40 |  |  |  |  | 10.1 min | 162.96 Å² | C[P+](c1ccccc1)(c1ccccc1)c1ccccc1 [Methyltriphenylphosphonium]
41 | 12.1 min | 170.74 Å² | 12 min | 173.48 Å² |  |  | CCc1cccc(C)c1N(C(=O)CS(=O)(=O)O)C(C)COC (centres undefined) [Metolachlor ESA]
42 | 12.7 min | 160 Å² | 11.9 min | 165.62 Å² |  |  | CCc1cccc(C)c1N(C(=O)C(=O)O)C(C)COC (centres undefined) [Metolachlor OA]
43 | 7.62 min | 166.24 Å² |  |  |  |  | CC(C)NCC(O)COc1ccc(CC(=O)O)cc1 (centres undefined) [Metoprolol acid]

Row | Structure (SMILES) | reversed-phase LC retention time [1, 3] | collision cross section [2, 3] | reversed-phase LC retention time [1, 4] | collision cross section [2, 4] | reversed-phase LC retention time [1, 5] | collision cross section [2, 5]
44 | CC(C)c1ccc(NC(=O)N(C)C)cc1 [Isoproturon] | 13 min | 151.88 Å² |  |  |  | 
45 | CCC(C)(CC)c1cc(NC(=O)c2c(OC)cccc2OC)on1 [Isoxaben] | 14.3 min | 186.76 Å² | 14.7 min | 186.45 Å² |  | 
46 | CNC1(c2ccccc2Cl)CCCCC1=O (centres undefined) [Ketamine] | 8.79 min | 149.17 Å² |  |  |  | 
47 | CO/N=C(\C(=O)OC)c1ccccc1COc1ccccc1C [Kresoxim-methyl] | 15.4 min | 167.17 Å² |  |  |  | 
48 | O=c1[nH]c2c(c(=O)n1C1CCCCC1)CCC2 [Lenacil] | 12.8 min | 157.13 Å² |  |  |  | 
49 | CON(C)C(=O)Nc1ccc(Cl)c(Cl)c1 [Linuron] | 13.7 min | 152.6 Å² | 14 min | 149.38 Å² |  | 
50 | O=C1Nc2ccc(Cl)cc2C(c2ccccc2Cl)=NC1O (centres undefined) [Lorazepam] | 13.2 min | 168.84 Å² | 13.5 min | 167.96 Å² |  | 
51 | O=C1CCCC2C3CC(CN12)C1CCCCN1C3 (centres undefined) [Lupanine] | 5.52 min | 154.3 Å² |  |  |  | 
52 | C#CCOc1ccc(CCNC(=O)C(OCC#C)c2ccc(Cl)cc2)cc1OC (centres undefined) [Mandipropamid] | 14.2 min | 194.91 Å² | 14.6 min | 195.62 Å² |  | 
53 | CC#Cc1cc(C)nc(Nc2ccccc2)n1 [Mepanipyrim] | 14.6 min | 152.51 Å² |  |  |  | 
54 | C[N+]1(C)CCCCC1 [Mepiquat] |  |  |  |  | 1.01 min | 118.75 Å²
55 | COCC(=O)N(c1c(C)cccc1C)C(C)C(=O)OC (centres undefined) [Metalaxyl] | 12.7 min | 160.45 Å² |  |  |  | 
56 | Cc1nnc(-c2ccccc2)c(=O)n1N [Metamitron] | 8.87 min | 143.85 Å² |  |  |  | 
57 | Cc1cccc(C)c1N(Cn1cccn1)C(=O)CCl [Metazachlor] | 12.9 min | 159.2 Å² |  |  |  | 
58 | CC1(C)CCC(Cc2ccc(Cl)cc2)C1(O)Cn1cncn1 (centres undefined) [Metconazole] | 15.8 min | 170.17 Å² |  |  |  | 
59 | CNC(=O)Oc1cc(C)c(S(C)(=O)=O)c(C)c1 [Methiocarb sulfone] | 9.59 min | 162.89 Å² |  |  |  | 
60 | Cn1sc(Cl)cc1=O [Methylchloroisothiazolinone] | 7.46 min | 120.77 Å² |  |  |  | 
61 | CON(C)C(=O)Nc1ccc(Br)cc1 [Metobromuron] | 12.6 min | 148.37 Å² |  |  |  | 
62 | CCc1cccc(C)c1N(C(=O)CCl)C(C)COC (centres undefined) [Metolachlor] | 15.1 min | 160.17 Å² |  |  |  | 
